Test results from ChEMBL document CHEMBL1201862, “PubChem BioAssay data set” (2004).
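Five compound concentrations were applied to cells in 96-well plates for 48 hours; endpoints were derived by simple linear interpolation of the resulting dose-response curve. Here, GI50 denotes the concentration required for 50% inhibition of growth.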 The source made the active and inactive calls. Rule as the data show it: active = GI50 up to about 1.1 µM and inactive = higher.

Legend:
Assay in all cases: inhibition of tumour cell growth, NCI panel, 48 h
TK-10 = tested on: TK-10
SK-MEL-2 = tested on: SK-MEL-2
Malme-3M = tested on: Malme-3M
NCI-H23 = tested on: NCI-H23
CCRF-CEM = tested on: CCRF-CEM
K562 = tested on: K562
SR = tested on: SR
SK-OV-3 = tested on: SK-OV-3
LOX IMVI = tested on: LOX IMVI
HT-29 = tested on: HT-29
UO-31 = tested on: UO-31
HCT-15 = tested on: HCT-15
U-251 = tested on: U-251
OVCAR-3 = tested on: OVCAR-3
M14 = tested on: M14
RXF 393 = tested on: RXF 393
SK-MEL-28 = tested on: SK-MEL-28
NCI-H226 = tested on: NCI-H226
SF-539 = tested on: SF-539
A549 = tested on: A549

Structure (SMILES) | GI50 (TK-10) | GI50 (SK-MEL-2) | GI50 (Malme-3M) | GI50 (NCI-H23) | GI50 (CCRF-CEM) | GI50 (K562) | GI50 (SR) | GI50 (SK-OV-3) | GI50 (LOX IMVI) | GI50 (HT-29) | GI50 (UO-31) | GI50 (HCT-15) | GI50 (U-251) | GI50 (OVCAR-3) | GI50 (M14) | GI50 (RXF 393) | GI50 (SK-MEL-28) | GI50 (NCI-H226) | GI50 (SF-539) | GI50 (A549)
CCC(Sc1cc(Cl)c(C)cc1S(=O)(=O)Nc1nc(N)nc(N(C)C)n1)C(=O)O (stereo not given) | > 10 µM (inactive) | > 10 µM (inactive) | > 10 µM (inactive) | > 10 µM (inactive) | > 10 µM (inactive) | > 10 µM (inactive) | > 10 µM (inactive) | > 10 µM (inactive) | > 10 µM (inactive) | > 10 µM (inactive) | > 10 µM (inactive) | > 10 µM | > 10 µM (inactive) | > 10 µM (inactive) | > 10 µM (inactive) | > 10 µM (inactive) | > 10 µM (inactive) | > 10 µM (inactive) | > 10 µM (inactive) | > 10 µM (inactive)
Cc1nc2ccccc2cc1C[N+]12CN3CN(CN(C3)C1)C2 | 24.9 µM (inactive) | 18.6 µM (inactive) | 17.3 µM (inactive) | 17.5 µM (inactive) | 0.962 µM (active) | 29.2 µM (inactive) | 19 µM (inactive) | 32.7 µM (inactive) | 14.7 µM (inactive) | 15.7 µM (inactive) | 23.6 µM (inactive) | 15.2 µM | 12.1 µM (inactive) | 28.1 µM (inactive) | 18.5 µM (inactive) | 16.6 µM (inactive) | 18.7 µM (inactive) | 23.6 µM (inactive) | 14.2 µM (inactive) | 30.8 µM (inactive)
CC(C)(O)/C=C/C(=O)[C@](C)(O)[C@H]1[C@H](O)C[C@@]2(C)[C@@H]3CC=C4[C@@H](C[C@H](O)C(=O)C4(C)C)[C@]3(C)C(=O)C[C@]12C [CUCURBITACIN D] | 0.239 µM (active) | 0.0543 µM (active) | 0.0679 µM (active) | 1.07 µM (active) | 0.0687 µM (active) | 0.287 µM (active) | 0.118 µM (active) | 0.281 µM (active) | 0.0562 µM (active) | 0.112 µM (active) | 0.272 µM (active) | – | 0.0923 µM (active) | 0.201 µM (active) | 0.076 µM (active) | 0.0964 µM (active) | 0.0653 µM (active) | 0.277 µM (active) | 0.0826 µM (active) | 0.177 µM (active)
O=C(Nc1nc2ncn(CCO)c2c(=O)[nH]1)c1ccccc1 | > 100 µM (inactive) | > 100 µM (inactive) | > 100 µM (inactive) | – | > 100 µM (inactive) | > 100 µM (inactive) | > 100 µM (inactive) | > 100 µM (inactive) | > 100 µM (inactive) | > 100 µM (inactive) | > 100 µM (inactive) | > 100 µM | > 100 µM (inactive) | > 100 µM (inactive) | > 100 µM (inactive) | > 100 µM (inactive) | > 100 µM (inactive) | > 100 µM (inactive) | > 100 µM (inactive) | > 100 µM (inactive)
COc1cc(/C=C2/C(=O)NC(Cc3cc(OC)c(OC)c(C)c3OC)C(=O)N2Cc2ccccc2)c(OC)c(C)c1OC (stereo not given) | 56.5 µM (inactive) | 30.2 µM (inactive) | 30.8 µM (inactive) | 79.8 µM (inactive) | 39.7 µM (inactive) | 44.2 µM (inactive) | 14.3 µM (inactive) | 49.2 µM (inactive) | 70 µM (inactive) | 79.8 µM (inactive) | 26 µM (inactive) | – | 48.2 µM (inactive) | 47.2 µM (inactive) | 33 µM (inactive) | > 100 µM (inactive) | > 100 µM (inactive) | 58.6 µM (inactive) | 75 µM (inactive) | > 100 µM (inactive)
Cc1nc2ccc(C(F)(F)F)cc2nc1Nc1ccc(Cl)c(Cl)c1 | 17.6 µM (inactive) | 14.3 µM (inactive) | 19.9 µM (inactive) | 12.6 µM (inactive) | 6.44 µM (inactive) | – | 8.73 µM (inactive) | 18.9 µM (inactive) | 3.03 µM (inactive) | 4.68 µM (inactive) | 12.2 µM (inactive) | 6.12 µM | 6.46 µM (inactive) | 12.8 µM (inactive) | – | 6.49 µM (inactive) | 12.2 µM (inactive) | 16.1 µM (inactive) | 14.1 µM (inactive) | 7.14 µM (inactive)
CSc1nc2c(c(=O)n1C)N=C(c1ccc(Cl)cc1)CC(c1ccccc1)N2 (stereo not given) | – | 13.9 µM (inactive) | 16.1 µM (inactive) | 24.1 µM (inactive) | 26 µM (inactive) | 20.7 µM (inactive) | 29.9 µM (inactive) | 29.4 µM (inactive) | 20.6 µM (inactive) | 15.6 µM (inactive) | 24.5 µM (inactive) | – | 40.8 µM (inactive) | 33.7 µM (inactive) | 17.5 µM (inactive) | 39.4 µM (inactive) | 47.8 µM (inactive) | 17.6 µM (inactive) | 17.9 µM (inactive) | 25.2 µM (inactive)
NC(=O)c1ccccc1NC(=O)C(=O)Nc1n[nH]c(N)n1 | > 100 µM (inactive) | > 100 µM (inactive) | > 100 µM (inactive) | > 100 µM (inactive) | > 100 µM (inactive) | > 100 µM (inactive) | > 100 µM (inactive) | > 100 µM (inactive) | > 100 µM (inactive) | > 100 µM (inactive) | > 100 µM (inactive) | > 100 µM | > 100 µM (inactive) | > 100 µM (inactive) | > 100 µM (inactive) | > 100 µM (inactive) | – | > 100 µM (inactive) | > 100 µM (inactive) | > 100 µM (inactive)
O=c1cnn(C/C=C\CO)c(=O)[nH]1 | 75.2 µM (inactive) | > 100 µM (inactive) | > 100 µM (inactive) | > 100 µM (inactive) | > 100 µM (inactive) | > 100 µM (inactive) | > 100 µM (inactive) | – | > 100 µM (inactive) | – | > 100 µM (inactive) | > 100 µM | > 100 µM (inactive) | > 100 µM (inactive) | > 100 µM (inactive) | > 100 µM (inactive) | > 100 µM (inactive) | > 100 µM (inactive) | > 100 µM (inactive) | > 100 µM (inactive)
CCCCCCOP(=O)(OCCCCCC)C(NC(=O)OCC)(C(F)(F)F)C(F)(F)F | 43.7 µM (inactive) | 22.9 µM (inactive) | 34.4 µM (inactive) | – | 42.1 µM (inactive) | 39.4 µM (inactive) | 50.8 µM (inactive) | 29 µM (inactive) | 24.6 µM (inactive) | 51.4 µM (inactive) | 28.6 µM (inactive) | 30.4 µM | 36.8 µM (inactive) | 45.1 µM (inactive) | 32 µM (inactive) | 11.7 µM (inactive) | 41.9 µM (inactive) | 24.9 µM (inactive) | 36.3 µM (inactive) | 36.9 µM (inactive)
CC(=O)n1nnc2ccc([N+](=O)[O-])cc21 | > 100 µM (inactive) | > 100 µM (inactive) | > 100 µM (inactive) | > 100 µM (inactive) | > 100 µM (inactive) | > 100 µM (inactive) | > 100 µM (inactive) | > 100 µM (inactive) | > 100 µM (inactive) | > 100 µM (inactive) | > 100 µM (inactive) | – | > 100 µM (inactive) | > 100 µM (inactive) | > 100 µM (inactive) | > 100 µM (inactive) | > 100 µM (inactive) | > 100 µM (inactive) | > 100 µM (inactive) | > 100 µM (inactive)
CCC(C)C(=O)c1c(O)c(C/C=C(\C)CCC=C(C)C)c(O)c2c(C(O)CC)cc(=O)oc12 (stereo not given) | 3.81 µM (inactive) | 1.62 µM (inactive) | 2.24 µM (inactive) | 1.56 µM (inactive) | 0.693 µM (active) | 0.679 µM (active) | 1.31 µM (inactive) | 4.41 µM (inactive) | 2.74 µM (inactive) | 1.27 µM (inactive) | 2.24 µM (inactive) | – | 1.51 µM (inactive) | 2.69 µM (inactive) | 3.31 µM (inactive) | 1.79 µM (inactive) | 1.68 µM (inactive) | 2.53 µM (inactive) | 1.67 µM (inactive) | 2.72 µM (inactive)
CN(C)CCC1(C2=CCCC2)CC/C(=C\c2ccccc2)C1=O (stereo not given) | 15.6 µM (inactive) | 16.4 µM (inactive) | 15.7 µM (inactive) | 21.8 µM (inactive) | 17.1 µM (inactive) | 13.8 µM (inactive) | 25.2 µM (inactive) | – | 17.1 µM (inactive) | 17.1 µM (inactive) | 16.6 µM (inactive) | 13 µM | 16.6 µM (inactive) | 15.2 µM (inactive) | 16.4 µM (inactive) | 12.5 µM (inactive) | 21.8 µM (inactive) | 16.9 µM (inactive) | 16.6 µM (inactive) | 20.3 µM (inactive)
COc1ccc2c(c1)O[C@H]1c3ccc(O)cc3OC[C@@H]21 | 35.3 µM (inactive) | 26.5 µM (inactive) | 34.8 µM (inactive) | 26 µM (inactive) | 19.2 µM (inactive) | 30.1 µM (inactive) | 14.3 µM (inactive) | 39.5 µM (inactive) | 13 µM (inactive) | 34.4 µM (inactive) | 20 µM (inactive) | 34.1 µM | 27.9 µM (inactive) | 29.2 µM (inactive) | 19.2 µM (inactive) | 19.3 µM (inactive) | – | 25.1 µM (inactive) | 20.7 µM (inactive) | 28.6 µM (inactive)
